Measurements published in US20060223792A1, “Phenyl and pyridyl LTA4H modulators” (priority 2005, published 2006).
Where a name gives a salt, the structure may show the parent alone. Read-outs that look alike come from different tables or passages of the source.

How the values were obtained:
[1] = tested on: LTB4 production by calcium ionophore-stimulated murine blood; experiment: LTB4 production by calcium ionophore-stimulated murine blood for LTA4H inhibitor activity; assay type: cell-based, CD-1 mice; settings: diluted CD-1 mouse whole blood, calcium ionophore A23187, LTB4 by enzyme-linked immunoassay
Method: LTB4 Production by Calcium Ionophore-Stimulated Murine Blood for LTA4H Inhibitor Activity
CD-1 mice were sacrificed, and blood was collected in heparin-containing syringes by cardiac puncture. The blood was diluted 1:15 with RPMI-1640 medium, and 200-μL aliquots of the diluted blood were added to wells of a 96-well microtiter plate. LTA4H inhibitor test compounds were prepared at different concentrations in RPMI-1640 medium containing […], and 20 μL of each test solution was added to a well containing diluted whole blood (final DMSO concentration of 0.1%). After the microtiter plate contents were incubated for 15 min at 37° C. in a humidified incubator, calcium ionophore A23187 (Sigma Chemical Co., St. Louis, Mo.) was added to each sample well (final concentration=20 ng/mL). The incubation was continued under the same conditions for an additional 10 min to allow LTB4 formation. The reaction was terminated by centrifugation (833×g, 10 min at 4° C.), and supernatants were analyzed for LTB4 by a commercially available enzyme-linked immunoassay (Cayman Chemical Co.) according to the manufacturer's instructions. Positive controls, under essentially identical conditions but without addition of an inhibitor compound, and negative unstimulated controls, containing all assay components except calcium ionophore, were routinely run in each experiment. IC50 values were determined by fitting the activity data at different compound concentrations to a 4-parameter equation using the Grafit program (Erithacus software).

[2] = target: T1, recombinant human LTA4 hydrolase (rhLTA4H) (Homo sapiens, UniProt P09960); experiment: Recombinant human LTA4 hydrolase assay for LTA4 hydrolase inhibitor activity; assay type: biochemical
T1 construct: made in house; host or cells: Spodoptera frugiperda (Sf-9) cells, baculovirus (pFastBac1)
T1 sequence (P09960 1-611): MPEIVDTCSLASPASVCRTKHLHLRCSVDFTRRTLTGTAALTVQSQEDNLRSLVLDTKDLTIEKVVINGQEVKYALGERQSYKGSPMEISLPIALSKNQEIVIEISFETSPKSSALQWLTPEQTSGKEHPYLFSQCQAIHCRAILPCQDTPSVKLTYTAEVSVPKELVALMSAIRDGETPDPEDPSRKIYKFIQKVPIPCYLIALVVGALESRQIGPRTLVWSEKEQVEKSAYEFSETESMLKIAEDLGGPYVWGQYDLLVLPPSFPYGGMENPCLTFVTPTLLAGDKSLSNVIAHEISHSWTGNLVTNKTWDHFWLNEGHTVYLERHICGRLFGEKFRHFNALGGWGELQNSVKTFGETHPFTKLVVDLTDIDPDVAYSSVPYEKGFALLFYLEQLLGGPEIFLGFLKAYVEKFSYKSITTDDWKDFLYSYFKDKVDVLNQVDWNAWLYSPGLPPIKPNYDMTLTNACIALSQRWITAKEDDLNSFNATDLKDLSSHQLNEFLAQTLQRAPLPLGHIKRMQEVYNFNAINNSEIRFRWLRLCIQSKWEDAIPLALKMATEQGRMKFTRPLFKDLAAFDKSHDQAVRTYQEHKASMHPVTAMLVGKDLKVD
Procedure, shortened: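 Sf-9-expressed rhLTA4H (36 ng) preincubated 10 min at rt with compound in 0.1 M potassium phosphate pH 7.4, 5 mg/mL fatty-acid-free BSA; 9 ng LTA4 free acid added, 10 min at rt in 225 μL. LTB4 measured by enzyme immunoassay; IC50 from 4-parameter fit, mean of one to three determinations.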

[3] = recombinant human LTA4H, LTB4 quantified by enzyme-linked immunoassay, average of one to three determinations, read-out: IC50

Structure (SMILES)	IC50 [1]	IC50 [2, 3]	IC50 [2]
O=C(Nc1ccsc1)Oc1ccc(OCCN2CCCCC2)cc1 [Example 64, Thiophen-3-yl-carbamic acid 4-(2-piperidin-1-yl-ethoxy)-phenyl ester]	48 nM	3 nM	
c1ccc2c(c1)CC(Oc1ccc(OCCN3CCCCC3)cc1)C2 [Example 69, 1-{2-[4-(Indan-2-yloxy)-phenoxy]-ethyl}-piperidine]	215 nM	20 nM	
CS(=O)(=O)NC1CCN(Cc2ccc(OCCCc3ccccc3)cc2)CC1 [Example 119, N-{1-[4-(3-Phenyl-propoxy)-benzyl]-piperidin-4-yl}-methanesulfonamide]	93 nM	19 nM	
CC(=O)NC1CCN(Cc2ccc(OCCc3ccccc3)cc2)CC1 [Example 113, N-[1-(4-Phenethyloxy-benzyl)-piperidin-4-yl]-acetamide]	56 nM	13 nM	
O=C(Cc1ccc(OCCN2CCC(O)(c3ccccc3)CC2)cc1)Nc1ccccc1O [Example 13, N-(2—hydroxy-phenyl)-2-{4-[2-(4-hydroxy-4-phenyl-piperidin-1-yl)-ethoxy]-phenyl}-acetamide]	47 nM	10 nM	
O=C(COc1ccc(OCCN2CCCCC2)cc1)c1ccccc1 [Example 24, 1-Phenyl-2-[4-(2-piperidin-1-yl-ethoxy)-phenoxy]-ethanone]	202 nM	58 nM	
CS(=O)(=O)NC1CCN(Cc2ccc(OCCc3ccccc3)cc2)CC1 [Example 93, N-[1-(4-Phenethyloxy-benzyl)-piperidin-4-yl]methanesulfonamide]	16 nM	18 nM	
NC(=O)C1CCN(CCc2ccc(OCCc3ccccc3)cc2)CC1 [Example 79, 1-[2-(4-Phenethyloxy-phenyl)-ethyl]-piperidine-4-carboxylic acid amide]	192 nM	50 nM	
CCCCN(CCCC)CCCc1ccc(OC(=O)Nc2ccccc2)cc1 [Example 12, Phenyl-carbamic acid 4-(3-dibutylamino-propyl)-phenyl ester hydrochloride]	88 nM		3 nM
c1ccc(CCOc2ccc(CN3CCC(c4nnn[nH]4)CC3)cc2)cc1 [Example 104, 1-(4-Phenethyloxy-benzyl)-4-(1H-tetrazol-5-yl)-piperidine]	284 nM	61 nM	
c1ccc(CCOc2ccc(OCCN3CCCCC3)cc2)cc1 [Example 67, 1-[2-(4-Phenethyloxy-phenoxy)-ethyl]-piperidine]	175 nM	23 nM	
